Assay results: ChEMBL document CHEMBL1201862, “PubChem BioAssay data set” (2004)
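1) Cells in 96-well plates. 2) Compound, 48 h, 5 concentrations. 3) Linear interpolation between surrounding doses. 4) Unreached endpoint = highest concentration. GI50: concentration for 50% inhibition of growth.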 Calls of active or inactive are those of the source. Cut-off read from the data, not from the text of the source: active = GI50 up to about 1.1 µM and inactive = higher.

How the values were obtained:
Assay in all cases: NCI-60 cell line screen, 48 h
OVCAR-4 = system: OVCAR-4
LOX IMVI = system: LOX IMVI
SK-MEL-5 = system: SK-MEL-5
SK-OV-3 = system: SK-OV-3
SNB-78 = system: SNB-78
HCC 2998 = system: HCC 2998
SF-539 = system: SF-539
CCRF-CEM = system: CCRF-CEM
DMS-114 = system: DMS-114
COLO 205 = system: COLO 205
MOLT-4 = system: MOLT-4
RPMI-8226 = system: RPMI-8226
SF-295 = system: SF-295
A498 = system: A498
M19-MEL = system: M19-MEL
NCI-H460 = system: NCI-H460
T47D = system: T47D
DU-145 = system: DU-145
MDA-MB-435 = system: MDA-MB-435

SMILES | GI50 (OVCAR-4) | GI50 (LOX IMVI) | GI50 (SK-MEL-5) | GI50 (SK-OV-3) | GI50 (SNB-78) | GI50 (HCC 2998) | GI50 (SF-539) | GI50 (CCRF-CEM) | GI50 (DMS-114) | GI50 (COLO 205) | GI50 (MOLT-4) | GI50 (RPMI-8226) | GI50 (SF-295) | GI50 (A498) | GI50 (M19-MEL) | GI50 (NCI-H460) | GI50 (T47D) | GI50 (DU-145) | GI50 (MDA-MB-435)
Cc1cccc(C(C)C)c1NC(=O)C(=O)CC(=O)c1c(C)[n+]([O-])c2ccccc2[n+]1[O-] | 25.4 µM (inactive) | 23 µM (inactive) | 34 µM (inactive) | > 100 µM (inactive) | 49 µM (inactive) | 34.3 µM (inactive) | 36.9 µM (inactive) | 32.2 µM (inactive) | 16.5 µM (inactive) | 33.1 µM (inactive) | 21.5 µM (inactive) | 22.2 µM (inactive) | 49.1 µM (inactive) | > 100 µM (inactive) | 19.8 µM (inactive) | 21.5 µM (inactive) | – | – | –
O=C(CCC1CCCCN1)Nc1ccc2c(c1)C(=O)c1ccc(NC(=O)CCN3CCCCC3)cc1C2=O (configuration not stated) | 1.65 µM (inactive) | 1.21 µM (inactive) | 1.4 µM (inactive) | 5.3 µM (inactive) | 4.56 µM (inactive) | > 10 µM (inactive) | 2.97 µM (inactive) | 8.73 µM (inactive) | 1.59 µM (inactive) | 1.35 µM (inactive) | 1.95 µM (inactive) | 7.55 µM (inactive) | 3.56 µM (inactive) | 4.14 µM (inactive) | 2.04 µM (inactive) | 4.17 µM (inactive) | > 10 µM (inactive) | > 10 µM (inactive) | > 10 µM (inactive)
COC(=O)C1CC(C(=O)OC)c2nc3cc([N+](=O)[O-])ccc3nc21 (configuration not stated) | > 100 µM (inactive) | 22.3 µM (inactive) | 58.7 µM (inactive) | > 94 µM (inactive) | > 100 µM (inactive) | 30.5 µM (inactive) | 41 µM (inactive) | 9.53 µM (inactive) | 16.3 µM (inactive) | 49.1 µM (inactive) | 19.4 µM (inactive) | 26.1 µM (inactive) | 25.5 µM (inactive) | > 100 µM (inactive) | 61 µM (inactive) | 65.6 µM (inactive) | – | – | –
BrC1=CC=C2NC=CC3=CC=NC1C32 (configuration not stated) | 27.7 µM (inactive) | 9.55 µM (inactive) | 20 µM (inactive) | 25.1 µM (inactive) | 29.6 µM (inactive) | 35.1 µM (inactive) | 12.6 µM (inactive) | 6.22 µM (inactive) | 14 µM (inactive) | 21.6 µM (inactive) | 2.75 µM (inactive) | 11.4 µM (inactive) | 8.36 µM (inactive) | 30.3 µM (inactive) | 14.1 µM (inactive) | 2.75 µM (inactive) | – | – | –
COC(=O)C1=C(O)c2cc(OC)c(OC)cc2C(c2ccc(OC)c(OC)c2)C1 (configuration not stated) | > 100 µM (inactive) | 69.5 µM (inactive) | > 100 µM (inactive) | > 100 µM (inactive) | > 100 µM (inactive) | > 100 µM (inactive) | > 100 µM (inactive) | > 100 µM (inactive) | > 100 µM (inactive) | 38.6 µM (inactive) | 88.5 µM (inactive) | > 100 µM (inactive) | 46.9 µM (inactive) | 36.3 µM (inactive) | > 100 µM (inactive) | 66.7 µM (inactive) | – | – | –
COc1ccc2c3c1C(=O)CCC3CO2 (configuration not stated) | > 100 µM (inactive) | > 100 µM (inactive) | > 100 µM (inactive) | > 100 µM (inactive) | > 100 µM (inactive) | > 100 µM (inactive) | > 100 µM (inactive) | > 100 µM (inactive) | > 100 µM (inactive) | > 100 µM (inactive) | > 100 µM (inactive) | > 100 µM (inactive) | > 100 µM (inactive) | > 100 µM (inactive) | > 100 µM (inactive) | > 100 µM (inactive) | – | – | –
CC1(C)CC2CC(CC(C)(C)C2=O)C1=O | > 100 µM (inactive) | > 100 µM (inactive) | > 100 µM (inactive) | > 100 µM (inactive) | > 100 µM (inactive) | > 100 µM (inactive) | > 100 µM (inactive) | > 100 µM (inactive) | > 100 µM (inactive) | > 100 µM (inactive) | > 100 µM (inactive) | > 100 µM (inactive) | > 100 µM (inactive) | > 100 µM (inactive) | > 100 µM (inactive) | > 100 µM (inactive) | – | – | –
CC#C[P+](c1ccccc1)(c1ccccc1)c1ccccc1 | 6.49 µM (inactive) | 2 µM (inactive) | 2.2 µM (inactive) | 14.6 µM (inactive) | 4.33 µM (inactive) | 3.52 µM (inactive) | 2.25 µM (inactive) | 0.693 µM (active) | 2.08 µM (inactive) | 1.35 µM (inactive) | 0.953 µM (active) | – | 2.75 µM (inactive) | 39.4 µM (inactive) | 2.9 µM (inactive) | 2.48 µM (inactive) | – | – | –
CC1(C)CC(=O)C/C(=N/c2ccc([N+](=O)[O-])cc2)C1 | – | 19.2 µM (inactive) | > 100 µM (inactive) | > 100 µM (inactive) | > 100 µM (inactive) | > 100 µM (inactive) | – | 20.4 µM (inactive) | 41.4 µM (inactive) | 29.6 µM (inactive) | 58.6 µM (inactive) | 53.5 µM (inactive) | > 100 µM (inactive) | > 100 µM (inactive) | 66.2 µM (inactive) | > 100 µM (inactive) | – | – | –
CC(=O)Oc1cc2c(=O)oc3c(OC(C)=O)c(OC(C)=O)c(OC(C)=O)c4c(=O)oc(c1OC(C)=O)c2c34 | 41.9 µM (inactive) | 15.6 µM (inactive) | 61.1 µM (inactive) | 36.3 µM (inactive) | 39.4 µM (inactive) | > 100 µM (inactive) | 24.8 µM (inactive) | 19.2 µM (inactive) | 21.6 µM (inactive) | 59 µM (inactive) | 58.7 µM (inactive) | 73.8 µM (inactive) | 20.8 µM (inactive) | 65 µM (inactive) | 17.9 µM (inactive) | 34.7 µM (inactive) | – | – | –
O=C1N(c2ccccc2)C(=O)C2(SC=NN2Cc2ccccc2)N1c1ccccc1 (configuration not stated) | > 100 µM (inactive) | > 100 µM (inactive) | > 100 µM (inactive) | > 100 µM (inactive) | > 100 µM (inactive) | > 100 µM (inactive) | > 100 µM (inactive) | > 100 µM (inactive) | > 100 µM (inactive) | > 100 µM (inactive) | > 100 µM (inactive) | – | > 100 µM (inactive) | > 100 µM (inactive) | > 100 µM (inactive) | > 100 µM (inactive) | – | – | –
Cc1ccc(S(=O)(=O)c2c3nc4ccccc4nc3n3c2[nH]c2ccccc23)cc1 | > 100 µM (inactive) | > 100 µM (inactive) | > 100 µM (inactive) | > 100 µM (inactive) | > 100 µM (inactive) | > 100 µM (inactive) | > 100 µM (inactive) | > 100 µM (inactive) | > 100 µM (inactive) | > 100 µM (inactive) | > 100 µM (inactive) | > 100 µM (inactive) | – | 18.7 µM (inactive) | > 100 µM (inactive) | > 100 µM (inactive) | – | – | –
COc1cc2c(oc(=O)c3c4occc4cc(OC)c23)c2cccc(O)c12 | > 100 µM (inactive) | > 100 µM (inactive) | > 100 µM (inactive) | > 100 µM (inactive) | > 100 µM (inactive) | > 100 µM (inactive) | > 100 µM (inactive) | > 100 µM (inactive) | > 100 µM (inactive) | > 100 µM (inactive) | > 100 µM (inactive) | > 100 µM (inactive) | > 100 µM (inactive) | > 100 µM (inactive) | > 100 µM (inactive) | > 100 µM (inactive) | – | – | –
CC(C)NC1CCCCC2c3cc(F)ccc3[C@]12O (some centres not stated) | > 100 µM (inactive) | > 100 µM (inactive) | > 100 µM (inactive) | > 100 µM (inactive) | > 100 µM (inactive) | > 100 µM (inactive) | > 100 µM (inactive) | > 100 µM (inactive) | > 100 µM (inactive) | > 100 µM (inactive) | > 100 µM (inactive) | > 100 µM (inactive) | > 100 µM (inactive) | > 100 µM (inactive) | > 100 µM (inactive) | > 100 µM (inactive) | – | – | –
